# Measurements taken from patent publication US20250326725A1, “PI4-Kinase Inhibitors and Methods of Using the Same” (The Board of Trustees of the Leland Stanford Junior …, priority 2019, published 2025).
# Assays:
# [1] = tested on: lung cancer cell lines; experiment: Cell proliferation in monolayer culture (WST-1); format: cell-based, human; details: panel of lung cancer cell lines
# Experimental: (§1) Human lung cancer cells (A549, H1299, H460, H23, H2122, and H3122) were cultured in RPMI 1640 containing 10% FBS. Cells were maintained at 37° C. in an incubator with a humidified atmosphere containing 5% CO2.
# (§2) To assess the anti-cancer activity of exemplary PI4K antagonists, a panel of lung cancer cell lines annotated for the presence or absence of PI4K amplifications were treated with PI4K inhibitors (IN-9, TN-10, or compound B) that have greater than 1000-fold selectivity […] PI4KIIIβ over class I and class III PI3K family members. […] IC50 values were even lower with the presence of PI4K amplifications.
# (§3) PI4KIIIβ is a target in human cancers, including lung adenocarcinoma. (FIG. 1A). PI4P concentrations in H2122 cells (dots) treated in triplicate (dots) with Compound B or vehicle dimethyl sulfoxide (DMS). (FIG. 1B) Relative densities of PI4-kinase-amplified (red) and -diploid (black) human lung adenocarcinoma cell lines determined by WST-1 assays after 5 days of Compound B treatment. Results expressed relative to the lowest dose, which was set at 100%. (FIG. 1B, right panel) Half maximal inhibitory (IC50) concentrations of compound B determined from FIG. 1B, left panel. (FIG. 1C) Migrated and invaded 1-23 human lung adenocarcinoma cells in Transwell chambers were photographed (images) and counted (bar graphs) after treatment with compound B. Results expressed relative to DMSO-treated cells, which were set at 1.0. (FIG. 1C, right panel). Colonies formed by H2122 human lung cancer cells in soft agarose (FIG. 1D) and on plastic (FIG. 1E) were photographed (images) and counted (bar graphs) after 7 days of treatment with the indicated doses of compound B or vehicle DMSO (0 M). Results expressed relative to DMSO control, which were set at 1.0. PI4-kinase inhibition leads to selective cytotoxicity for cancer cells (FIG. 1F).
# [2] = target: PI3KC2γ (Homo sapiens, UniProt O75747); details: cited from earlier work
# Chain of PI3KC2γ (O75747 whole entry, species assumed): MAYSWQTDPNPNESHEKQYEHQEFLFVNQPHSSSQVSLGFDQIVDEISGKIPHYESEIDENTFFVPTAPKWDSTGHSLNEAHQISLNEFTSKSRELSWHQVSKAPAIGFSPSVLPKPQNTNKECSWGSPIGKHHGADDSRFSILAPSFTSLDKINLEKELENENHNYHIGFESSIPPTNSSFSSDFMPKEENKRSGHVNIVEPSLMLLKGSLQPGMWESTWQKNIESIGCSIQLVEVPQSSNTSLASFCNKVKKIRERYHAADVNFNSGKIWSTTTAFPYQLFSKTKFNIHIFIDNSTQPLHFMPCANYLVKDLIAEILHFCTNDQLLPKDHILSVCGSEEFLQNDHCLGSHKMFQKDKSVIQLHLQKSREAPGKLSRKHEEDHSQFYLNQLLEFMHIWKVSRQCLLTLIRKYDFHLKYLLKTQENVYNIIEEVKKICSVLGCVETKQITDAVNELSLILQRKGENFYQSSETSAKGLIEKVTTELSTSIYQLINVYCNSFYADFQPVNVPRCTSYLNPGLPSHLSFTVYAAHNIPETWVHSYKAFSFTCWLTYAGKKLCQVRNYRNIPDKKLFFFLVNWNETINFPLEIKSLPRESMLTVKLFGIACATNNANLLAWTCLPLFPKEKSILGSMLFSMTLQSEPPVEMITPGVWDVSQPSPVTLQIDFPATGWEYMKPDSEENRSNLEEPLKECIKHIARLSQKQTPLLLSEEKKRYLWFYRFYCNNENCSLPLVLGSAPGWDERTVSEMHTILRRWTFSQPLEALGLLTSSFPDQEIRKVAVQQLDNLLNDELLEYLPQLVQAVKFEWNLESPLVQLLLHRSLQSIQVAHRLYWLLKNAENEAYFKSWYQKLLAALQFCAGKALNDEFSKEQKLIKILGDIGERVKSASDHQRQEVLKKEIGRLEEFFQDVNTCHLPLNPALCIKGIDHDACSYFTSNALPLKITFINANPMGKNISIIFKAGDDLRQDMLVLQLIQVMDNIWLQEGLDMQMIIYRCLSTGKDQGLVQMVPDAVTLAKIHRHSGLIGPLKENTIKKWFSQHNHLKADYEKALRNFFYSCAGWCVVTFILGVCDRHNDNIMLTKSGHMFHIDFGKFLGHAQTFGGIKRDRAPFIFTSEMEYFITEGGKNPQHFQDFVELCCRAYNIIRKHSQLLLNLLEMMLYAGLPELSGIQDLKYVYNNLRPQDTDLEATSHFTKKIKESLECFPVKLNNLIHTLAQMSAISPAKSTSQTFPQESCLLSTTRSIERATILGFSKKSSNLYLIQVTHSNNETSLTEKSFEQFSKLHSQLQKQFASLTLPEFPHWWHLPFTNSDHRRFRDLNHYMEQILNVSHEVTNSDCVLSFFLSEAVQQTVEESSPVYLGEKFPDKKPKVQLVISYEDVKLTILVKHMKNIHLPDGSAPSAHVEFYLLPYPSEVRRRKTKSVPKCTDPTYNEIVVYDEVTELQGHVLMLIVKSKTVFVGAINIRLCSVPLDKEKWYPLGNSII
# [3] = tested on: lung cancer cell lines; experiment: PI4P levels in lung cancer cell lines; format: cell-based, human; details: panel of lung cancer cell lines
# Experimental: as §1, §2, §3
# [4] = target: PI3Kβ (Homo sapiens, UniProt P42338); details: at concentrations up to 20 μM; cited from earlier work
# Chain of PI3Kβ (P42338 whole entry, species assumed): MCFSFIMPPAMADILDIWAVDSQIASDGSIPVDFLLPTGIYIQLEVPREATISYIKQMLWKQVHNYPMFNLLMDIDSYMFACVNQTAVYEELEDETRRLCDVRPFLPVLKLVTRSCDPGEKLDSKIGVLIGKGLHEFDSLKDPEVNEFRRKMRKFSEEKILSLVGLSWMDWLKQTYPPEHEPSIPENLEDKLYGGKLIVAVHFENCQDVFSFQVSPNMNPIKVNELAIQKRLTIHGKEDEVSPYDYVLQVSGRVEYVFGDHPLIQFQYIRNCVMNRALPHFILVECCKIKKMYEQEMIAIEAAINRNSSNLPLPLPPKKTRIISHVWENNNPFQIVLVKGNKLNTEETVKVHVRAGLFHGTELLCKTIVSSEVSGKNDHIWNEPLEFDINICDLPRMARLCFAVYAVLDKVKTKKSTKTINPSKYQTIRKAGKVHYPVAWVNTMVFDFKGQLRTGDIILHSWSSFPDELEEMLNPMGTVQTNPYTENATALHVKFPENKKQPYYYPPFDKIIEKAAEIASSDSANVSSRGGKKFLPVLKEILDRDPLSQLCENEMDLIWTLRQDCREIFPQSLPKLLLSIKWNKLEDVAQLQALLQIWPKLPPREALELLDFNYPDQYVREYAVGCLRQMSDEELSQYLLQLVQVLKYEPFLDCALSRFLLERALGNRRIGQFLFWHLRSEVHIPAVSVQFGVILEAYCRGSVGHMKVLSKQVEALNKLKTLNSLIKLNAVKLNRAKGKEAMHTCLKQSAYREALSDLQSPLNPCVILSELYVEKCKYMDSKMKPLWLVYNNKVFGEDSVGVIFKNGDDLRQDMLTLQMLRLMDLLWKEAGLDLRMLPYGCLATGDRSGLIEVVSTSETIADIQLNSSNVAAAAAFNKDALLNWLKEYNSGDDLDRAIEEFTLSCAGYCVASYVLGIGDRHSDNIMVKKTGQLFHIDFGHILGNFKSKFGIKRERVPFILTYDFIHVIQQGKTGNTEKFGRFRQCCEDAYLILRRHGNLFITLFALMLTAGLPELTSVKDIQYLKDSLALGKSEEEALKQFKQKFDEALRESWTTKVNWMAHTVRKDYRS
# Chain of PI3Kβ (P27986 whole entry partner, species assumed): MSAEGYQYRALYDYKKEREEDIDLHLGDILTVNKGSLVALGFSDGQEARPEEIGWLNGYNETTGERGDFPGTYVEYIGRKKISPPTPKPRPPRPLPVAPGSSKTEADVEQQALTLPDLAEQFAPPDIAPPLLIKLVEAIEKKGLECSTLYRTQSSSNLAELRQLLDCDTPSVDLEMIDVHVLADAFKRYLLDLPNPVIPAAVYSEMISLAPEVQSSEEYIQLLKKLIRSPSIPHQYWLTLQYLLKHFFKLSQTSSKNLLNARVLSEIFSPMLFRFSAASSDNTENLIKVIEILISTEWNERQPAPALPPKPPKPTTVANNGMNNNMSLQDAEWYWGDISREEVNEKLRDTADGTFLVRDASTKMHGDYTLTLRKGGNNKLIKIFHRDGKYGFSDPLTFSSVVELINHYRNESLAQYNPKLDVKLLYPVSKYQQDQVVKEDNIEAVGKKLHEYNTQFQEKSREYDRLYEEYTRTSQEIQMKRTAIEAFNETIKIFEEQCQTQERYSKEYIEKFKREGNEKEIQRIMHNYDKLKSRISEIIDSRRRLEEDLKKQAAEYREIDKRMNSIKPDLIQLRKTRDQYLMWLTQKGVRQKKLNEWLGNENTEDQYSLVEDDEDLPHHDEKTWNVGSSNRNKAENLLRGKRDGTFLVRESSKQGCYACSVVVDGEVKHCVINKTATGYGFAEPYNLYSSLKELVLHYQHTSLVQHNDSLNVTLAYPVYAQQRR
# [5] = tested on: lung cancer cell lines; experiment: Colony formation in soft agar and on plastic; format: cell-based, human; details: panel of lung cancer cell lines
# Experimental: as §1, §2, §3
# [6] = target: PI4K2β (Homo sapiens, UniProt Q8TCG2); details: at concentrations up to 20 μM; cited from earlier work
# Chain of PI4K2β (Q8TCG2 whole entry): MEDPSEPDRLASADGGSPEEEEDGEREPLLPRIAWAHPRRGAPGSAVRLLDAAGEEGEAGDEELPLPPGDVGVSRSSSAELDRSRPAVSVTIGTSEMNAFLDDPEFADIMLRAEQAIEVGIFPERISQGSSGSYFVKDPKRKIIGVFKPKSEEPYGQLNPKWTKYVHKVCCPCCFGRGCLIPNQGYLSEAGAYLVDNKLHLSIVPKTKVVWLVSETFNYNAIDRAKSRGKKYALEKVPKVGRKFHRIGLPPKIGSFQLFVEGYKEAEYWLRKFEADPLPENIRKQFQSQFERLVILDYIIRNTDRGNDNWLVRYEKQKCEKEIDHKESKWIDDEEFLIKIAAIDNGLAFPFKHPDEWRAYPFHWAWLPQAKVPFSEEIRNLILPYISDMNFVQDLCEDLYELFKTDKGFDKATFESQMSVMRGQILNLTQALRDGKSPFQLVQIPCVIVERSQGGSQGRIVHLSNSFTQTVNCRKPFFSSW
# [7] = tested on: lung cancer cell lines; experiment: Migration and invasion in Boyden chambers; format: cell-based, human; details: panel of lung cancer cell lines
# Experimental: as §1, §2, §3
# [8] = target: PI4K2α (Homo sapiens, UniProt Q9BTU6); details: at concentrations up to 20 μM; cited from earlier work
# [9] = target: PI3Kα (Homo sapiens, UniProt P42336); details: cited from earlier work
# Chain of PI3Kα (P42336 whole entry, species assumed): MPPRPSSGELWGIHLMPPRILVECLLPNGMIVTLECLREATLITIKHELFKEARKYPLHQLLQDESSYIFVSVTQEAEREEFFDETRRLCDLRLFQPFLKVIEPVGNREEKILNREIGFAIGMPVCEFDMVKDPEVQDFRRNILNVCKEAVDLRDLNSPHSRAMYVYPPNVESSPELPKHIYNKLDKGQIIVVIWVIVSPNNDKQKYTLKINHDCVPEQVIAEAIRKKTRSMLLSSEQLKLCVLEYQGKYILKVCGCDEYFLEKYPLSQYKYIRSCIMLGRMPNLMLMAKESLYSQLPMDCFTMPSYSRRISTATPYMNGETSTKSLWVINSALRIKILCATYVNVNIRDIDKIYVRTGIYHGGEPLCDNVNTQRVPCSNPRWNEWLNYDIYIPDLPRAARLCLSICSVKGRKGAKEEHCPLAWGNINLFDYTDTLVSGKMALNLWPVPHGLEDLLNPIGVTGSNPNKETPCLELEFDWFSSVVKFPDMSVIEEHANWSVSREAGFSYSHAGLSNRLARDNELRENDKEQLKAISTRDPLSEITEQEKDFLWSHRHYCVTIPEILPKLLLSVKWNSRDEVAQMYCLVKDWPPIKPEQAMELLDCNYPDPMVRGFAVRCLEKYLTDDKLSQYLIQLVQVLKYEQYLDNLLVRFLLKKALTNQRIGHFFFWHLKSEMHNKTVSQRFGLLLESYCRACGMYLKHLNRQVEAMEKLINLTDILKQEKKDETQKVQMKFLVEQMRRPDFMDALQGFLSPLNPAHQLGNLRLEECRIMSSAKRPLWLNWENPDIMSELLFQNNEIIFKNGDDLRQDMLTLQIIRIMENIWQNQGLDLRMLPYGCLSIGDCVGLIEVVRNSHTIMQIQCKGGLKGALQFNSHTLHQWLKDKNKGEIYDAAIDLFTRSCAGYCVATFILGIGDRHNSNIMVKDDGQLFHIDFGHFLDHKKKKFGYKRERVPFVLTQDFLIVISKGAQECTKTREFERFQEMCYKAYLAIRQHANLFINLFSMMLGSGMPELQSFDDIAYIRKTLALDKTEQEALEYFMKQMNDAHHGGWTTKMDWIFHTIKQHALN
# Chain of PI3Kα (P27986 whole entry partner, species assumed): as the sequence (P27986 whole entry partner, species assumed) above
smiles,measurement,setting,value
COc1ccc(-c2sc(NC(=O)C(C)(C)C)nc2C)cc1S(=O)(=O)Nc1ccc(O)cc1 [PI4KIIIbeta-IN-10],cell proliferation in monolayer culture,[1],reduced cell proliferation in monolayer culture
same,IC50,[2],~1 µM
same,PI4P levels,[3],decreased PI4P levels in a dose-dependent fashion
same,inhibition of PI3Kβ,[4],< 20%
same,colony formation in soft agar and on plastic,[5],reduced
same,inhibition of PI4K2β,[6],< 20%
same,migration and invasion in Boyden chambers,[7],reduced
same,inhibition of PI4K2α,[8],< 20%
same,IC50,[9],~10 µM
